Paper PMC5218480 (PLoS ONE, 2017)

Tested on: MV-4-11 cells
Assay: Gene expression microarray analysis (Affymetrix PrimeView) and GSEA
Format: cell-based, human
Parameters: RFU PODN (11730768_x_at) / Fold change /veh PODN (11730768_x_at) / RFU LINC00158 (11744669_a_at) / Fold change /veh LINC00158 (11744669_a_at) / RFU DUSP10 (11751237_a_at) / Fold change /veh DUSP10 (11751237_a_at) / RFU ID3 (11757404_x_at) / Fold change /veh ID3 (11757404_x_at) / RFU PLEKHG5 (11737974_s_at) / Fold change /veh PLEKHG5 (11737974_s_at) / RFU LRRC4B (11730491_at) / Fold change /veh LRRC4B (11730491_at) / RFU GIMAP4 (11747438_a_at) / Fold change /veh GIMAP4 (11747438_a_at) / RFU KRT8 (11758183_x_at) / Fold change /veh KRT8 (11758183_x_at) / RFU CNN1 (11734310_a_at) / Fold change /veh CNN1 (11734310_a_at) / RFU VPS37D (11726825_at) / Fold change /veh VPS37D (11726825_at) / RFU C10orf10 (11716522_x_at) / Fold change /veh C10orf10 (11716522_x_at) / RFU KIR2DL2 /// KIR2DL4 /// KIR2DL5A /// KIR2DL5B /// KIR2DS1 /// KIR2DS2 /// KIR2DS3 /// KIR2DS4 /// KIR3DL3 /// KIR3DL3 /// KIR3DS1 (11738374_at) / Fold change /veh KIR2DL2 /// KIR2DL4 /// KIR2DL5A /// KIR2DL5B /// KIR2DS1 /// KIR2DS2 /// KIR2DS3 /// KIR2DS4 /// KIR3DL3 /// KIR3DL3 /// KIR3DS1 (11738374_at) / RFU C1QL1 (11718748_at) / Fold change /veh C1QL1 (11718748_at) / RFU TMPRSS4 (11747572_a_at) / Fold change /veh TMPRSS4 (11747572_a_at) / RFU HAMP (11756126_x_at) / Fold change /veh HAMP (11756126_x_at) / RFU RNFT2 (11725882_a_at) / Fold change /veh RNFT2 (11725882_a_at) / RFU NR4A2 (11747474_a_at) / Fold change /veh NR4A2 (11747474_a_at) / RFU ABCC12 (11746883_a_at) / Fold change /veh ABCC12 (11746883_a_at) / RFU TMEM136 (11760407_x_at) / Fold change /veh TMEM136 (11760407_x_at) / RFU CLDN22 /// WWC2 (11732394_at) / Fold change /veh CLDN22 /// WWC2 (11732394_at) / RFU HLA-DPB1 (11760878_x_at) / Fold change /veh HLA-DPB1 (11760878_x_at) / RFU SPINT1 (11716480_a_at) / Fold change /veh SPINT1 (11716480_a_at) / RFU GAP43 (11754022_s_at) / Fold change /veh GAP43 (11754022_s_at) / RFU A4GNT (11735810_at) / Fold change /veh A4GNT (11735810_at) / RFU PRB3 (11715151_x_at) / Fold change /veh PRB3 (11715151_x_at) / RFU TUBB4B (11761932_at) / Fold change /veh TUBB4B (11761932_at) / RFU CAPN14 (11732068_a_at) / Fold change /veh CAPN14 (11732068_a_at) / RFU TMCC2 (11721928_a_at) / Fold change /veh TMCC2 (11721928_a_at) / RFU IRGQ (11745062_a_at) / Fold change /veh IRGQ (11745062_a_at) / RFU FAM174B (11720279_a_at) / Fold change /veh FAM174B (11720279_a_at) / RFU TMPRSS4 (11748680_a_at) / Fold change /veh TMPRSS4 (11748680_a_at) / RFU FAM212B (11763350_a_at) / Fold change /veh FAM212B (11763350_a_at) / RFU PLEKHG5 (11743358_a_at) / Fold change /veh PLEKHG5 (11743358_a_at) / RFU ZSCAN30 (11745921_a_at) / Fold change /veh ZSCAN30 (11745921_a_at) / RFU CMKLR1 (11741424_a_at) / Fold change /veh CMKLR1 (11741424_a_at) / RFU LOC101060620 /// MAPK8IP1 (11723275_at) / Fold change /veh LOC101060620 /// MAPK8IP1 (11723275_at) / RFU SPTSSB (11747773_x_at) / Fold change /veh SPTSSB (11747773_x_at) / RFU PRSS12 (11739890_at) / Fold change /veh PRSS12 (11739890_at) / RFU BIN1 (11741810_x_at) / Fold change /veh BIN1 (11741810_x_at) / RFU WNT11 (11732464_a_at) / Fold change /veh WNT11 (11732464_a_at) / RFU C10orf10 (11716521_a_at) / Fold change /veh C10orf10 (11716521_a_at) / RFU C5orf56 (11738089_at) / Fold change /veh C5orf56 (11738089_at) / RFU CYB561 (11721691_x_at) / Fold change /veh CYB561 (11721691_x_at) / RFU ANKRD19P (11752326_a_at) / Fold change /veh ANKRD19P (11752326_a_at) / RFU OR2T12 /// OR2T33 /// OR2T8 (11738714_s_at) / Fold change /veh OR2T12 /// OR2T33 /// OR2T8 (11738714_s_at) / RFU VCAN (11748164_a_at) / Fold change /veh VCAN (11748164_a_at) / RFU JSRP1 (11732532_at) / Fold change /veh JSRP1 (11732532_at) / RFU KRTAP10-11 (11738290_x_at) / Fold change /veh KRTAP10-11 (11738290_x_at) / RFU MYO3A (11730013_a_at) / Fold change /veh MYO3A (11730013_a_at) / RFU EBF3 (11725865_a_at) / Fold change /veh EBF3 (11725865_a_at) / RFU CAMK2N1 (11719241_x_at) / Fold change /veh CAMK2N1 (11719241_x_at) / RFU C5orf56 (11738088_a_at) / Fold change /veh C5orf56 (11738088_a_at) / RFU OLFML3 (11715873_a_at) / Fold change /veh OLFML3 (11715873_a_at) / RFU LOC100653217 /// NTM (11731650_a_at) / Fold change /veh LOC100653217 /// NTM (11731650_a_at) / RFU MAPK11 (11762145_a_at) / Fold change /veh MAPK11 (11762145_a_at) / RFU FIZ1 (11724087_x_at) / Fold change /veh FIZ1 (11724087_x_at) / RFU OASL (11726364_x_at) / Fold change /veh OASL (11726364_x_at) / RFU SOX15 (11748057_x_at) / Fold change /veh SOX15 (11748057_x_at) / RFU CD79A (11719716_a_at) / Fold change /veh CD79A (11719716_a_at) / RFU HIST1H1D (11736915_at) / Fold change /veh HIST1H1D (11736915_at) / RFU CASKIN2 (11723855_a_at) / Fold change /veh CASKIN2 (11723855_a_at) / RFU LOC730098 (11760151_x_at) / Fold change /veh LOC730098 (11760151_x_at) / RFU OR4N2 (11742367_at) / Fold change /veh OR4N2 (11742367_at) / RFU PRRT2 (11749266_a_at) / Fold change /veh PRRT2 (11749266_a_at) / RFU SNX32 (11753110_a_at) / Fold change /veh SNX32 (11753110_a_at) / RFU CDHR5 (11726645_a_at) / Fold change /veh CDHR5 (11726645_a_at) / RFU RCAN1 (11760418_a_at) / Fold change /veh RCAN1 (11760418_a_at) / RFU FAM167A (11723789_a_at) / Fold change /veh FAM167A (11723789_a_at) / RFU FAM26E (11764081_at) / Fold change /veh FAM26E (11764081_at) / RFU ISYNA1 (11749810_s_at) / Fold change /veh ISYNA1 (11749810_s_at) / RFU ACY1 (11761880_at) / Fold change /veh ACY1 (11761880_at) / RFU 11764098_at / Fold change /veh 11764098_at / RFU SAMD14 (11745864_x_at) / Fold change /veh SAMD14 (11745864_x_at) / RFU NPB (11741838_a_at) / Fold change /veh NPB (11741838_a_at) / RFU TMPRSS6 (11731388_a_at) / Fold change /veh TMPRSS6 (11731388_a_at) / RFU KRTAP10-2 (11738614_at) / Fold change /veh KRTAP10-2 (11738614_at) / RFU ARHGAP8 /// PRR5-ARHGAP8 (11727945_x_at) / Fold change /veh ARHGAP8 /// PRR5-ARHGAP8 (11727945_x_at) / RFU KRTAP5-7 /// NADSYN1 (11734609_at) / Fold change /veh KRTAP5-7 /// NADSYN1 (11734609_at) / RFU RASL12 (11751679_a_at) / Fold change /veh RASL12 (11751679_a_at) / RFU CDKN2B (11736163_a_at) / Fold change /veh CDKN2B (11736163_a_at) / RFU PRF1 (11729649_at) / Fold change /veh PRF1 (11729649_at) / RFU, ZNF638 /// ZNF638-IT1 / Fold change vs veh, ZNF638 /// ZNF638-IT1 / RFU, PANK3 / Fold change vs veh, PANK3 / RFU, SH3YL1 / Fold change vs veh, SH3YL1 / RFU, ZEB2 / Fold change vs veh, ZEB2 / RFU, NRIP1 / Fold change vs veh, NRIP1 / RFU, PTTG1IP / Fold change vs veh, PTTG1IP / RFU, CAPN2 / Fold change vs veh, CAPN2 / RFU, MED14 / Fold change vs veh, MED14 / RFU, SNORA58 / Fold change vs veh, SNORA58 / RFU, C1orf63 / Fold change vs veh, C1orf63 / RFU, LRRFIP1 / Fold change vs veh, LRRFIP1 / RFU, NDUFAF7 / Fold change vs veh, NDUFAF7 / RFU, SLC12A2 / Fold change vs veh, SLC12A2 / RFU, IBTK / Fold change vs veh, IBTK / RFU, ESF1 / Fold change vs veh, ESF1 / Fold change vs veh, TMEM50B / RFU, TAOK1 / Fold change vs veh, TAOK1 / RFU, ACBD3 / Fold change vs veh, ACBD3 / RFU, TMA16 / Fold change vs veh, TMA16 / RFU, RWDD3 / Fold change vs veh, RWDD3 / RFU, BCAT1 / Fold change vs veh, BCAT1 / RFU, EDEM3 / Fold change vs veh, EDEM3 / RFU, TMEM33 / Fold change vs veh, TMEM33 / RFU, WDR75 / Fold change vs veh, WDR75 / RFU, AHCTF1 / Fold change vs veh, AHCTF1 / RFU, TFRC / Fold change vs veh, TFRC / RFU, ZDHHC17 / Fold change vs veh, ZDHHC17 / RFU, NOM1 / Fold change vs veh, NOM1 / RFU, ARL8B / Fold change vs veh, ARL8B / RFU, ZBTB11 / Fold change vs veh, ZBTB11 / RFU, TAMM41 / Fold change vs veh, TAMM41 / RFU, KIAA1704 /// LOC100996395 / Fold change vs veh, KIAA1704 /// LOC100996395 / RFU, ING1 / Fold change vs veh, ING1 / RFU, TRMT61B / Fold change vs veh, TRMT61B / RFU, FUBP3 / Fold change vs veh, FUBP3 / RFU, TP53 / Fold change vs veh, TP53 / RFU, TNKS2 / Fold change vs veh, TNKS2 / RFU, ZFP14 / Fold change vs veh, ZFP14 / RFU, ACTR2 / Fold change vs veh, ACTR2 / RFU, PPP3R1 / Fold change vs veh, PPP3R1 / RFU, PIK3R1 / Fold change vs veh, PIK3R1 / RFU, HNRNPA1 / Fold change vs veh, HNRNPA1 / RFU, RNF170 / Fold change vs veh, RNF170 / RFU, ZNF28 / Fold change vs veh, ZNF28 / RFU, RNGTT / Fold change vs veh, RNGTT / RFU, OGT / Fold change vs veh, OGT / RFU, BRD1 / Fold change vs veh, BRD1 / RFU, MARS / Fold change vs veh, MARS / RFU, ZNF655 / Fold change vs veh, ZNF655 / RFU, FAHD1 / Fold change vs veh, FAHD1 / RFU, BDP1 / Fold change vs veh, BDP1 / RFU, LRRCC1 / Fold change vs veh, LRRCC1 / RFU, ARID1A / Fold change vs veh, ARID1A / RFU, ZNF146 / Fold change vs veh, ZNF146 / RFU, ZNF330 / Fold change vs veh, ZNF330 / RFU, GPN3 / Fold change vs veh, GPN3 / RFU, C9orf123 / Fold change vs veh, C9orf123 / RFU, N4BP2L2 / Fold change vs veh, N4BP2L2 / RFU, ARFIP1 / Fold change vs veh, ARFIP1 / RFU, FAM179B / Fold change vs veh, FAM179B / RFU, BCL10 / Fold change vs veh, BCL10 / RFU, UHRF1BP1L / Fold change vs veh, UHRF1BP1L / RFU, BET1 / Fold change vs veh, BET1 / RFU, CNOT2 / Fold change vs veh, CNOT2 / RFU, ZNF268 / Fold change vs veh, ZNF268 / Fold change vs veh, ZNF507 / RFU, DGCR2 / Fold change vs veh, DGCR2 / RFU, WDSUB1 / Fold change vs veh, WDSUB1 / Fold change vs veh, HSP90B1 /// MIR3652 / RFU, ADSS / Fold change vs veh, ADSS / RFU, GK / Fold change vs veh, GK / RFU, ZNF148 / Fold change vs veh, ZNF148 / RFU, TAF9 / Fold change vs veh, TAF9 / RFU, SLC1A5 / Fold change vs veh, SLC1A5 / RFU, SLMO2 / Fold change vs veh, SLMO2 / RFU, ABCC4 / Fold change vs veh, ABCC4 / RFU, LOC101060439 /// RAP1B / Fold change vs veh, LOC101060439 /// RAP1B / RFU, RFX7 / Fold change vs veh, RFX7 / RFU, GTPBP10 / Fold change vs veh, GTPBP10 / RFU, CNEP1R1 / Fold change vs veh, CNEP1R1 / RFU, BIVM-ERCC5 /// ERCC5 / Fold change vs veh, BIVM-ERCC5 /// ERCC5 / RFU, ILF3 / Fold change vs veh, ILF3 / RFU 11762660_at / Fold change /veh 11762660_at / RFU VCAN (11757783_s_at) / Fold change /veh VCAN (11757783_s_at) / RFU DDX43 (11728927_at) / Fold change /veh DDX43 (11728927_at) / RFU KRT8 (11758188_x_at) / Fold change /veh KRT8 (11758188_x_at) / RFU NKD1 (11759106_at) / Fold change /veh NKD1 (11759106_at) / RFU SRD5A1 (11742802_a_at) / Fold change /veh SRD5A1 (11742802_a_at) / RFU TPSAB1 /// TPSB2 (11721975_s_at) / Fold change /veh TPSAB1 /// TPSB2 (11721975_s_at) / RFU GSTM3 (11746129_a_at) / Fold change /veh GSTM3 (11746129_a_at) / RFU IL23R (11737362_x_at) / Fold change /veh IL23R (11737362_x_at) / RFU TMEM51 (11727254_a_at) / Fold change /veh TMEM51 (11727254_a_at) / RFU PIWIL2 (11732686_x_at) / Fold change /veh PIWIL2 (11732686_x_at) / RFU ORM1 (11744905_x_at) / Fold change /veh ORM1 (11744905_x_at) / RFU CCDC152 (11743942_at) / Fold change /veh CCDC152 (11743942_at) / RFU ECM1 (11717891_a_at) / Fold change /veh ECM1 (11717891_a_at) / RFU IL23R (11748794_a_at) / Fold change /veh IL23R (11748794_a_at) / RFU TNFAIP8L3 (11732012_x_at) / Fold change /veh TNFAIP8L3 (11732012_x_at) / RFU MBOAT4 (11741988_at) / Fold change /veh MBOAT4 (11741988_at) / RFU 11764193_at / Fold change /veh 11764193_at / RFU TMEM53 (11763286_at) / Fold change /veh TMEM53 (11763286_at) / RFU MAGEB2 (11727129_at) / Fold change /veh MAGEB2 (11727129_at) / RFU TMEM200A (11744735_a_at) / Fold change /veh TMEM200A (11744735_a_at) / RFU CCDC152 (11751479_a_at) / Fold change /veh CCDC152 (11751479_a_at) / RFU FAM211A (11726209_a_at) / Fold change /veh FAM211A (11726209_a_at) / RFU RGS16 (11746705_a_at) / Fold change /veh RGS16 (11746705_a_at) / RFU VCAN (11755009_s_at) / Fold change /veh VCAN (11755009_s_at) / RFU RHOB (11743442_s_at) / Fold change /veh RHOB (11743442_s_at) / RFU RGS16 (11720943_a_at) / Fold change /veh RGS16 (11720943_a_at) / RFU RGS16 (11720944_at) / Fold change /veh RGS16 (11720944_at) / RFU, VPS4B / Fold change vs veh, VPS4B / RFU, CREB1 / Fold change vs veh, CREB1 / RFU, DNAJC13 / Fold change vs veh, DNAJC13 / RFU, GNAQ / Fold change vs veh, GNAQ / RFU, CDK5R1 / Fold change vs veh, CDK5R1 / RFU, ZRANB3 / Fold change vs veh, ZRANB3 / RFU, CUL4A / Fold change vs veh, CUL4A / RFU, CCNY / Fold change vs veh, CCNY / RFU, UFL1 / Fold change vs veh, UFL1 / RFU, COG3 / Fold change vs veh, COG3 / RFU, DIAPH2 / Fold change vs veh, DIAPH2 / RFU, SKA2 / Fold change vs veh, SKA2 / RFU, AFF3 / Fold change vs veh, AFF3 / RFU, LMF1 / Fold change vs veh, LMF1 / RFU, IPO11 / Fold change vs veh, IPO11 / RFU, DFFB / Fold change vs veh, DFFB / RFU, FOXP1 / Fold change vs veh, FOXP1 / RFU, CARD8 / Fold change vs veh, CARD8 / RFU, STRN3 / Fold change vs veh, STRN3 / RFU, ADK / Fold change vs veh, ADK / RFU, RASSF2 / Fold change vs veh, RASSF2 / RFU, WIPF1 / Fold change vs veh, WIPF1 / RFU, LARP1B / Fold change vs veh, LARP1B / RFU, RASA1 / Fold change vs veh, RASA1 / RFU, RB1 / Fold change vs veh, RB1 / RFU, PPFIA1 / Fold change vs veh, PPFIA1 / RFU, MAT2A / Fold change vs veh, MAT2A / RFU, CCT5 / Fold change vs veh, CCT5 / RFU, WDR92 / Fold change vs veh, WDR92 / RFU, CUX1 / Fold change vs veh, CUX1 / RFU, TTC7A / Fold change vs veh, TTC7A / RFU, TMEM135 / Fold change vs veh, TMEM135 / RFU, DEPTOR / Fold change vs veh, DEPTOR / RFU, CPM / Fold change vs veh, CPM / RFU, DNAJB6 / Fold change vs veh, DNAJB6 / RFU, CACNA2D3 / Fold change vs veh, CACNA2D3 / RFU, DTX4 / Fold change vs veh, DTX4 / RFU, TFCP2 / Fold change vs veh, TFCP2 / RFU, GMCL1 /// GMCL1P1 / Fold change vs veh, GMCL1 /// GMCL1P1 / RFU, AEBP2 / Fold change vs veh, AEBP2 / RFU, SNHG1 /// SNORD22 /// SNORD25 /// SNORD26 /// SNORD27 /// SNORD28 /// SNORD29 /// SNORD31 / Fold change vs veh, SNHG1 /// SNORD22 /// SNORD25 /// SNORD26 /// SNORD27 /// SNORD28 /// SNORD29 /// SNORD31 / Fold change (Aza/veh), C12orf56 (ProbeSet 11735607_a_at) / Fold change (ACY-1035/veh), C12orf56 (ProbeSet 11735607_a_at) / Fold change (Aza/veh), FGFR1OP (ProbeSet 11751329_s_at) / Fold change (ACY-1035/veh), FGFR1OP (ProbeSet 11751329_s_at) / Fold change (Aza/veh), VPS36 (ProbeSet 11739960_a_at) / Fold change (ACY-1035/veh), VPS36 (ProbeSet 11739960_a_at) / RFU SYPL1 (11715823_x_at) / Fold change /veh SYPL1 (11715823_x_at) / RFU IGFBP7 (11715501_s_at) / Fold change /veh IGFBP7 (11715501_s_at) / RFU REEP3 (11722064_at) / Fold change /veh REEP3 (11722064_at) / RFU IGLL1 (11728026_x_at) / Fold change /veh IGLL1 (11728026_x_at): dose or concentration left out as unconfirmed
Conditions: gene C12orf56; ACY-1035 vs DMSO; LIST F

Nc1ccc(-c2cccs2)cc1NC(=O)c1ccc2c(c1)cc(C1CC1)n2CCN1CCOCC1 [ACY-1035]
Fold change (ACY-1035/veh), C12orf56 (ProbeSet 11735607_a_at): 0.39
